In patent publication US20110288106A1, “ADENINE RECEPTOR LIGANDS” (Rheinische Friedrich-Wilhelms-Universitaet Bonn …, priority 2008, published 2011):
Counter-ions that a name gives are not always drawn.

Legend:
rAde1R [1] = target: T1, rAde1R (Rattus norvegicus, UniProt Q7TN49); details: literature, Gorzalka et al. 2005; cited from earlier work
T1 construct: expressed in transfected cells; host or cells: 1321N1 human astrocytoma cells
T1 sequence (Q7TN49 1-304): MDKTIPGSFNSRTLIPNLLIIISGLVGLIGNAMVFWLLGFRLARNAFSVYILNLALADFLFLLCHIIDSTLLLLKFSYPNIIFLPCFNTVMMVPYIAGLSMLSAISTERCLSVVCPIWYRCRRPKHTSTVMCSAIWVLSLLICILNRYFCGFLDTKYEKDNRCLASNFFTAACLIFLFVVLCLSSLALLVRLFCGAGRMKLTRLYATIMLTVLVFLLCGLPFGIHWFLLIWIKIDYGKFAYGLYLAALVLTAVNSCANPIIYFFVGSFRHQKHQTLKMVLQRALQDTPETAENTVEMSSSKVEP

Human adenine receptor = test: Radioligand binding assay, [3H]adenine competition, HEK293 cell membrane preparations; details: HEK293 cell membranes, vs. 10 nM [3H]adenine, mean ± SEM
Experimental: (§1) Competition assays with [8-^3H]adenine (27 Ci/mmol; GE Healthcare) were carried out as described previously (Gorzalka et al., Mol. Pharmacol. 2005, 67, 955-964). In brief, 50 μg of rat cortical membrane preparations or 100 μg of protein (HEK293 (human embryonic kidney) cell membrane preparations) was incubated with 10 nM [8^3H]adenine in 50 mM Tris-HCl buffer, pH 7.4, in a total volume of 200 μl. Inhibition curves were determined using 6 to 9 different concentrations of selected adenine derivative. Three separate experiments were performed each in triplicate. Nonspecific binding was determined by using 100 μM adenine. Incubations were carried out for 1 h at room temperature and terminated by rapid filtration through GF/B glass fiber filters (Whatman, Dassel, Germany). Filters were washed three times with ice-cold 50 mM Tris-HCl buffer, pH 7.4, 3 ml each. Filter-bound radioactivity was measured by liquid scintillation counting.
(§2) Data points represent means±SEM of three separate experiments each performed in triplicate.

rAde1R [2] = target: T1, rAde1R; test: cAMP-dependent luciferase assay, inhibition of isoproterenol-stimulated cAMP accumulation; type: cell-based; details: for effect on isoproterenol-induced cAMP accumulation: 3 nM isoproterenol, n=3
Experimental: (§3) 1321N1 cells stably expressing the rAde1R were cultured in DMEM supplemented with 10% (v/v) FCS, L-glutamine (2 mM), penicillin (100 U/ml), streptomycin (100 U/ml) and 400 μg/ml G 418 at 37° C. under a humidified atmosphere containing 5% CO2. Cells were cultured in 75 cm^2 flasks (3.2×10^5) for 24 h without antibiotics so that they were 90-95% confluent before transfection. The cAMP responsive reporter plasmid (pCER-luc) or serum response element (pSRE-luc) was transfected into 1321N1 cells expressing rat adenine receptors using Lipofectamine 2000 as a transfection reagent.
Reporter cells were seeded at a density of […] cells/well in a 24-well plate 18-20 hr prior to assay. After removal of culture medium, cells were washed twice with Hanks' balanced salt solution (containing 20 mM HEPES, pH 7.3). Adenine and selected adenine derivatives were diluted in Hanks' balanced salt solution containing 3 nM isoproterenol and then incubated with reporter cells in the same buffer for 3 h at 37° C. The reaction was stopped by removal of the reaction buffer and the luciferase expression was determined using Bright-Glo™ Luciferase assay system (Promega) as described in the kit protocol. Plates were shaken for 2 min to ensure complete lysis of cells. Then the total volume from each well was transferred to a white 96-well plate (Greiner bio-one). Luminescence was determined using a NOVOstar microplate reader (BMG labtech); each well was counted for 2 s at 20° C.

Rat adenine receptor = target: T2, Rat adenine receptor (Rattus norvegicus, UniProt Q7TN49); test: Radioligand binding assay, [3H]adenine competition, rat cortical membrane preparations; details: rat cortex membranes, vs. 10 nM [3H]adenine, mean ± SEM
T2 construct: 50 μg of rat cortical membrane preparations; from tissue; host or cells: rat brain cortex membranes
T2 sequence (Q7TN49 1-304): T1 sequence (Q7TN49 1-304)
Experimental: as §1, §2

[3] = test system: non-transfected 1321N1 astrocytoma cells; test: Erk phosphorylation assay (SRE-dependent luciferase), non-transfected cells; type: cell-based, human; details: 6 h
rAde1R [4] = target: T1, rAde1R; test: Erk phosphorylation assay (SRE-dependent luciferase), 1321N1 cells expressing rAde1R; type: cell-based; details: 1321N1 astrocytoma cells stably expressing rAde1R, 6 h
Experimental: as §3
Erk phosphorylation was investigated by a gene reporter assay measuring SRE-dependent luciferase activity in astrocytoma cells stably transfected with the rat adenine receptor. The cells were seeded in a 24-well plate prior to the assay. The culture medium was removed and cells were washed twice with Hanks' balanced salt solution without HEPES, pH 7.3. Adenine was diluted in the same buffer and then added to the cells, which were incubated for 6 h at 37° C. The reaction was stopped by removal of the reaction buffer and the luciferase expression was determined as described before.

[5] = 10 μM compound, 1321N1 cells expressing rAde1R

| Compound | melting point [°C] | Ki (Rat adenine receptor) [µM] | Ki (Human adenine receptor) [µM] | other results |
| --- | --- | --- | --- | --- |
| CNCCC(=O)Nc1ncnc2[nH]cnc12 (as salt: hydrochloride) [Example 9, 3-Methyl-amino-N(9H-purin-6-yl)propionamide dihydrochloride] | 213 |  |  |  |
| CCNCCC(=O)Nc1ncnc2[nH]cnc12 (as salt: hydrochloride) [Example 10, 3-Ethyl-amino-N(9H-purin-6-yl)propionamide dihydrochloride] | 216 |  |  |  |
| CCCNCCC(=O)Nc1ncnc2[nH]cnc12 (as salt: hydrochloride) [Example 11, 3-Propyl-amino-N(9H-purin-6-yl)propionamide dihydrochloride] | 171 |  |  |  |
| Cn1cnc2ncnc-2c1N [1-methyl-adenine] |  |  |  | values at the rAde1R (rAde1R [1]): micromolar range |
| Cn1cnc(N)c2ncnc1-2 [3-methyl-adenine] |  |  |  | values at the rAde1R (rAde1R [1]): micromolar range |
| Cn1cnc2ncnc(N)c21 [7-methyl-adenine] |  |  |  | values at the rAde1R (rAde1R [1]): micromolar range |
| Cn1cnc2c(N)ncnc21 [9-methyl-adenine] |  |  |  | values at the rAde1R (rAde1R [1]): micromolar range |
| CN(CCC(=O)Nc1ncnc2[nH]cnc12)C(=O)OC(C)(C)C [Example 1, 3-(tert-Butyloxycarbonyl-methyl-amino)-N(9H-purin-6-yl)propionamide] | 205 | 0.949 ± 0.135 | 5.47 ± 1.28 | effect on isoproterenol-induced cAMP accumulation (rAde1R [2]; [5]): adenine receptor agonists |
| CCN(CCC(=O)Nc1ncnc2[nH]cnc12)C(=O)OC(C)(C)C [Example 2, 3-(tert-Butyloxycarbonyl-ethyl-amino)-N(9H-purin-6-yl)propionamide] | 198 | 2.93 ± 0.4 | 7.7 ± 2.4 |  |
| CCCN(CCC(=O)Nc1ncnc2[nH]cnc12)C(=O)OC(C)(C)C [Example 3, 3-(tert-Butyloxycarbonyl-propyl-amino)-N(9H-purin-6-yl)propionamide] | 205 | 11.8 ± 0.8 | ≥ 100 |  |
| CCCCCCN(CCC(=O)Nc1ncnc2[nH]cnc12)C(=O)OC(C)(C)C [Example 4, 3-(tert-Butyloxycarbonyl-hexyl-amino)-N(9H-purin-6-yl)propionamide] | 185 | 1.56 ± 0.026 | 19.7 ± 0.7 |  |
| CC(C)(C)OC(=O)N(CCC(=O)Nc1ncnc2[nH]cnc12)Cc1ccccc1 [Example 5, 3-(tert-Butyloxycarbonyl-benzyl-amino)-N(9H-purin-6-yl)propionamide] | 202 | 9.02 ± 0.55 | 42.1 ± 1.8 |  |
| CC(C)(C)OC(=O)N(CCC(=O)Nc1ncnc2[nH]cnc12)CCc1ccccc1 [Example 6, 3-(tert-Butyloxycarbonyl-phenethyl-amino)-N(9H-purin-6-yl)propionamide] | 162 | 9.07 ± 0.8 | ≥ 100 |  |
| CC(C)(C)OC(=O)NCCC(=O)Nc1ncnc2[nH]cnc12 [Example 7, 3-tert-Butyloxycarbonylamino-N(9H-purin-6-yl)propionamide] | 191 | 0.334 ± 0.031 | 0.719 ± 0.081 |  |
| CC(C)(C)OC(=O)NCCCC(=O)Nc1ncnc2[nH]cnc12 [Example 8, 4-tert-Butyloxycarbonylamino-N(9H-purin-6-yl)butyramide] | 223 | 3.39 ± 0.56 | 2.68 ± 0.37 |  |
| CNCCC(=O)Nc1ncnc2[nH]cnc12 [Example 9, 3-Methyl-amino-N(9H-purin-6-yl)propionamide dihydrochloride] |  | 0.292 ± 0.056 | 1.83 ± 0.09 | effect on isoproterenol-induced cAMP accumulation (rAde1R [2]; [5]): no significant effect; Kb (rAde1R [2]; calculated from shift of adenine curve by 10 μM compound 9): 165 nM; effect on concentration-response curve of adenine (rAde1R [2]; compound 9 at 10 μM, 1321N1 cells expressing rAde1R, FIG. 5): shifted the concentration-response curve of adenine to the right proving that it is an antagonist |
| CCNCCC(=O)Nc1ncnc2[nH]cnc12 [Example 10, 3-Ethyl-amino-N(9H-purin-6-yl)propionamide dihydrochloride] |  | 0.508 ± 0.163 | 1.34 ± 0.48 | effect on isoproterenol-induced cAMP accumulation (rAde1R [2]; [5]): adenine receptor agonists |
| Nc1ncnc2nc[nH]c12 [adenine] |  |  |  | EC50 (rAde1R [2]; in the absence of compound 9): 2.24 ± 1.83 nM; EC50 (rAde1R [2]; in the presence of compound 9 (10 μM)): 115 ± 42 nM; Ki (rAde1R [1]): 29.9 nM; SRE-dependent luciferase expression / erk phosphorylation [3]: no effect; SRE-dependent luciferase expression / erk phosphorylation (rAde1R [4]): dose-dependent stimulation of erk phosphorylation |

Now from value to molecule, other results behind:

| melting point [°C] | Ki (Rat adenine receptor) [µM] | Compound | Ki (Human adenine receptor) [µM] | other results |
| --- | --- | --- | --- | --- |
| 197 |  | O=C(CCNCc1ccccc1)Nc1ncnc2[nH]cnc12 (as salt: hydrochloride) [Example 12, 3-Benzyl-amino-N(9H-purin-6-yl)propionamide dihydrochloride] |  |  |
| 196 |  | O=C(CCNCCc1ccccc1)Nc1ncnc2[nH]cnc12 (as salt: hydrochloride) [Example 13, 3-Phenethyl-amino-N(9H-purin-6-yl)propionamide dihydrochloride] |  |  |
|  | 1.29 ± 0.24 | CCCNCCC(=O)Nc1ncnc2[nH]cnc12 [Example 11, 3-Propyl-amino-N(9H-purin-6-yl)propionamide dihydrochloride] | 6.85 ± 2.17 |  |
|  | 0.852 ± 0.131 | O=C(CCNCc1ccccc1)Nc1ncnc2[nH]cnc12 [Example 12, 3-Benzyl-amino-N(9H-purin-6-yl)propionamide dihydrochloride] | 3.27 ± 1.23 | effect on isoproterenol-induced cAMP accumulation (rAde1R [2]; [5]): adenine receptor agonists |
|  | 2.12 ± 0.07 | O=C(CCNCCc1ccccc1)Nc1ncnc2[nH]cnc12 [Example 13, 3-Phenethyl-amino-N(9H-purin-6-yl)propionamide dihydrochloride] | 6.93 ± 0.83 |  |
| 204 | 0.0215 ± 0.0056 | Cl.NCCC(=O)Nc1ncnc2[nH]cnc12 [Example 14, 3-Amino-N(9H-purin-6-yl)propionamide hydrochloride] | 0.0447 ± 0.0034 | effect on isoproterenol-induced cAMP accumulation (rAde1R [2]; 1 μM compound, 1321N1 cells expressing rAde1R): adenine receptor agonists; inhibition of isoproterenol-stimulated cAMP accumulation by different concentrations (rAde1R [2]; 1321N1 cells expressing rAde1R, FIG. 4): concentration-dependent inhibition |
| 199 | 0.0805 ± 0.003 | Cl.NCCCC(=O)Nc1ncnc2[nH]cnc12 [Example 15, 4-Amino-N(9H-purin-6-yl)butyramide hydrochloride] | 0.149 ± 0.045 | effect on isoproterenol-induced cAMP accumulation (rAde1R [2]; [5]): adenine receptor agonists |
